Holding throughout (assay type): cell-based
The subject of data set [1] is HCV genotype 1b (HCV-1b) replicon cells. The data set is described as follows: HCV genotype 1b replicon cell assay (luciferase, Bright-Glo). To be noted: Hepatitis C virus, 72 h, HCV-1b (Con1) replicon cells, 3 days. Here is the method:
(§1) The EC50 and CC50 values of anti-HCV compounds were determined by HCV genotype 1a (HCV-1a) and 1b (HCV-1b) stable transfected replication (replicon) cells. The source of genotype 1a replicon is H77 clones containing K1691R, K2040R and S2204I adaptive mutations. The source of genotype 1b replicon is Con1 clones containing E1202G, T1280I and K1846T adaptive mutations.
(§2) HCV 1a (HCV-1a) and 1b (HCV-1b) gene subtype replicon system contains the related HCV gene subtype non-structural protein gene, G418 resistance gene NEO and luciferase gene, which results in that HCV related protein and luciferase can be stably expressed in cells. By detecting the level of expression of luciferase gene, the level of HCV replication can be determined. Therefore, the system is used as a model for screening the activity of anti-HCV compound in vitro.
(§3) The compound powder was dissolved in 100% DMSO. Then the compound was diluted 5 times with 6 points, and added into the cell plate with Echo liquid handler. Ensure the final concentration of DMSO was 0.5%. Each compound was tested in duplicate.
(§4) 4) Diluting cells to 8×10^4 cells/mL with the culture medium, adding the diluted cells into the compound-containing 96-well plate (Greiner, Cat. #655090) (100 μL/well, 8000 cells/well) with automatic liquid separator (Thermo Scientific). Then place into a 37° C., 5% CO2 incubator for 3 days. Cell control well: no compound, only containing 0.5% DMSO.
(§5) 6) Then adding luciferase substrate Bright-Glo, after incubation for 5 minutes, detecting the luciferase activity by microplate reader Envison (wavelength>700 nm); analyzing the anti-HCV inhibitory activity of the compounds according to luminescence data, which was used to calculate EC50 values.
(§6) The EC50 or CC50 values were obtained by nonlinear fitting regression on inhibition percentage (inh %) data with GraphPad Prism software.

For data set [2], the system named is HCV genotype 1a (HCV-1a) replicon cells. As to the kind of experiment: HCV genotype 1a replicon cell assay (luciferase, Bright-Glo). To be noted: Hepatitis C virus, 72 h, HCV-1a (H77) replicon cells, 3 days. As for the experimental part: as §1, §2, §3, §4, §5, §6
Data set [3] can be described thus: Cytotoxicity in HCV replicon cells (Cell Titer-fluor). Here is the method:
as §1, §3, §4
5) Adding fluorescence substrate Cell Titer-fluor to the cell well, after incubation for 30 minutes, detecting the signal by microplate reader Envison (Ex at 405 nm and read at 515 nm). The effect of the compounds on the cytotoxicity of HCV replicon cells was analyzed according to the fluorescence data, which was used to calculate the CC50 values.
as §6

For nine compounds, EC50 and CC50 results are on record in patent US10100027B2, “Benzofuran analogue as NS4B inhibitor” (priority 2014, dated 2018).

Take `N#CC1CN(C(=O)C2CCN(C(=O)c3oc4c(C(F)(F)F)cc(C5CC5)cc4c3Cl)CC2)C1` [YD_0352]: the figures for the EC50 in data set [1] and in data set [2] were 1 to 5 µM and 0.1 to 1 µM, respectively. In data set [3], this compound showed a CC50 at 3 days greater than 3 µM.

Take `NC(=O)C1CN(C(=O)C2CCN(C(=O)c3oc4c(C(F)(F)F)cc(C5CC5)cc4c3Cl)CC2)C1` [YD_0353]: the EC50 in data set [1] is 1 to 5 µM; in data set [2], 0.1 to 1 µM. This compound also registered a CC50 at 3 days in data set [3] greater than 3 µM.

As for `O=C(c1oc2c(C(F)(F)F)cc(C3CC3)cc2c1Cl)N1CCC(C(=O)N2CC(CO)C2)CC1` [YD_0355], the values for the EC50 in data set [1] and in data set [2] were 1 to 5 µM and 0.1 to 1 µM, respectively. The CC50 at 3 days in data set [3] is greater than 3 µM.

Take `O=C(c1oc2c(C(F)(F)F)cc(C3CC3)cc2c1Cl)N1CCC(C(=O)N2CC(O)C2)CC1` [YD_0356]: the EC50 in data set [1] and in data set [2] was 0.0001 to 0.1 µM throughout. Also, in data set [3], the CC50 at 3 days is greater than 3 µM.

Take `O=C(c1oc2c(C(F)(F)F)cc(C3CC3)cc2c1Cl)N1CCN(C2CCCC2)C(=O)N1` [YD_0357]: the EC50 in data set [1] and in data set [2] was 0.0001 to 0.1 µM each time. The same compound gave a CC50 at 3 days in data set [3] greater than 3 µM.

With `O=C(c1oc2c(C(F)(F)F)cc(C3CC3)cc2c1Cl)N1CCN([C@H]2CC[C@H](O)CC2)C(=O)N1` [YD_0365], the EC50 in data set [1] and in data set [2] was 0.0001 to 0.1 µM in each case. This compound had a CC50 at 3 days in data set [3] greater than 3 µM.

Regarding `CC(C)N1CCN(C(=O)c2oc3c(C(F)(F)F)cc(C4CC4)cc3c2Cl)NC1=O` [YD_0374], the EC50 in data set [1] and in data set [2] was 0.0001 to 0.1 µM each time. The CC50 at 3 days in data set [3] was greater than 3 µM.

As for `O=C(c1nn2c(C(F)(F)F)cc(C3CC3)cc2c1Cl)N1CCN(C2CCCC2)C(=O)N1` [YH_0369], the results for the EC50 in data set [1] and in data set [2] were 1 to 5 µM and 0.1 to 1 µM, respectively. In data set [3], this compound registered a CC50 at 3 days greater than 3 µM.

Regarding `CC(C)N1CCN(C(=O)c2nn3c(C(F)(F)F)cc(C4CC4)cc3c2Cl)NC1=O` [YH_0373], the EC50 in data set [1] and in data set [2] was 0.0001 to 0.1 µM each time. In data set [3], this compound showed a cytotoxic concentration (CC50) at 3 days greater than 3 µM.
